Data: US20080200404A1, “Novel Antimalarial 9A-Carbamoyl-Aminoalkyl and 9A-Thiocarbamoyl-Aminoalkyl Azalides” (priority 2005, published 2008)
Converted amounts (≈) assume the structure as drawn. Like-named read-outs stand apart in the source and are kept apart here.

Columns and labels:
Assay type in all cases: cell-based
[1] = tested on: Plasmodium falciparum clone CDC/Indochina III (W-2); experiment: In vitro antimalarial [3H]-hypoxanthine incorporation serial dilution assay, W2; conditions: P. falciparum W2, 72 hours exposure; for IC50: Plasmodium falciparum
Excerpt: (§1) The in vitro screens for intrinsic antimalarial activity were based on modifications of the procedures described by Desjardins R E, Canfield C J, Haynes J D, Chulay J D. (Quantitative assessment of antimalarial activity in vitro by a semiautomated microdilution technique. Antimicrob Agents Chemother. 1979 December; 16(6):710-8.), Chulay J D, Haynes J D, Diggs C L. (Plasmodium falciparum: Assessment of in vitro growth by [3H]hypoxanthine incorporation. Exp. Parasitol. 1983 55:138-146.), and Milhous W K, Weatherly N F, Bowdre J H, Desjardins R E. (In vitro activities of and mechanisms of resistance to antifol antimalarial drugs. Antimicrob Agents Chemother. 1985 April; 27(4):525-30.). The system was limited to the assessment of the intrinsic activity against the erythrocytic asexual life cycle (blood schizontocides). Two Plasmodium falciparum clones from CDC/Indochina III (W-2) and CDC/Sierra Leone I (D-6) (Oduola A M, Weatherly N F, Bowdre J H, Desjardins R E. Plasmodium falciparum: cloning by single-erythrocyte micromanipulation and heterogeneity in vitro. Exp Parasitol. 1988 66(1):86-95.) were used for all assays. TM91C235, a multiple drug resistant isolate from Thailand, was used for the prescreening assay. W-2 is resistant to chloroquine, quinine, and pyrimethamine and susceptible to mefloquine. D-6 tends to be more resistant to mefloquine and susceptible to chloroquine, quinine, and pyrimethamine. All documents cited in this paragraph are incorporated by reference in their entirety.
(§2) All parasites were maintained in continuous long term cultures in RPMI-1640 medium supplemented with 6% washed human A positive (A+)(erythrocytes, 25 mM Hepes, […], and 10% heat inactivated A+human plasma or ALBUMAX® (lipid-rich bovine serum albumin; Invitrogen, Carlsbad, Calif.). All cultures and assays were conducted at 37° C. under an atmosphere of 5% CO2 and 5% O2, with a balance of N2.
(§3) After the preincubation, [^3H]-hypoxanthine was added to each well of the MTP. (The assay relies on the incorporation of radiolabeled hypoxanthine by the parasites, which indicates reproduction, and inhibition of isotope incorporation was attributed to activity of known or candidate antimalarial drugs). After 72 hr of total incubation time, the MTP were frozen to lyse the erythrocytes and parasites. The parasite DNA was recovered by harvesting the lysate onto glass-fiber filter plates using a Packard FilterMate™ Cell Harvester. The radioactivity was counted on a Packard TopCount™ microplate scintillation counter. The results were recorded as counts per minutes (CPM) per well at each drug concentration divided by the arithmetic mean of the CPM from the three untreated infection parasite control wells.
(§4) The serial dilution assay was conducted using the same assay conditions and stock solution of the compound used for the preliminary screen, described above. Both the D-6 and the W-2 clones were used. The compounds were diluted two-fold over 11 different concentration ranges with a starting concentration that was based on the preliminary screen. For each drug, the concentration response profile was determined and 50% inhibitory concentrations (IC50) were determined by using a non-linear, logistic dose response analysis program. […] For each assay, the IC50 for each clone was determined against the known antimalarials chloroquine and mefloquine. These control values established the compound's relative parasite susceptibility profile compared to known antimalarials. […]
(§5) The in vitro potency of the compounds has been compared with that of azithromycin to better gauge compounds suitable for further testing. As described above, parasites were exposed for 72 hours. Data from the in vitro potency tests of azithromycin against the three parasite strains have been averaged, and these numbers have been used for identification of “active” macrolide compounds.

[2] = tested on: Plasmodium falciparum TM91C235; experiment: In vitro antimalarial [3H]-hypoxanthine incorporation assay, TM91C235; conditions: P. falciparum TM91C235 (multiple drug resistant isolate), 72 hours exposure; for IC50: Plasmodium falciparum
Excerpt: as §1, §2
The prescreening assay uses TM91C235 diluted at a 0.4% parasitemia in a 1% hematocrit in folic acid free and p-aminobenzoic acid free media RPMI-1640 and ALBUMAX®. One mg of the compound is typically dissolved in 100 μl of dimethyl sulfoxide (DMSO). The compound is further diluted in culture medium (FF) with ALBUMAX® for the first initial starting concentration. The rest of the stock drug solution was kept at −70° C. The isolate was preexposed, in duplicate, at three concentrations (25,000 ng/ml, 2,500 ng/ml, and 25 ng/ml) of the test compound for 48 hr in a 96-well microtiter plate (MTP) using the BIOMEK® 2000 automated laboratory workstation. Each MTP contains chloroquine as control to assess the relative activity of the compound and to monitor the response of TM91C235.
as §3
The serial dilution assay was conducted using the same assay conditions and stock solution of the compound used for the preliminary screen, described above. Both the D-6 and the W-2 clones were used. The compounds were diluted two-fold over 11 different concentration ranges with a starting concentration that was based on the preliminary screen. […]

[3] = tested on: Plasmodium falciparum clone CDC/Sierra Leone I (D-6); experiment: In vitro antimalarial [3H]-hypoxanthine incorporation serial dilution assay, D6; conditions: P. falciparum D6, 72 hours exposure; for IC50: Plasmodium falciparum, D6, 72 h
Excerpt: as §1, §2, §3, §4, §5

[4] = compared with azithromycin, read-out: IC50 D6 (class symbol)

IC50 W2 [1] [µg/mL]	IC50 TM91C235 [2] [µg/mL]	IC50 D6 [3] [µg/mL]	IC50 [1] [µg/mL]	IC50 [2] [µg/mL]	IC50 [3, 4] [µg/mL]	IC50 ([3]; read-out: IC50 D6) [µg/mL]	Compound
0.0744 (≈ 0.0785 µM)	0.0399 (≈ 0.0421 µM)	0.1344 (≈ 0.142 µM)					CCC1OC(=O)C(C)C(OC2CC(C)(OC)C(O)C(C)O2)C(C)C(OC2OC(C)CC(N(C)C)C2O)C(C)(O)CC(C)CN(CCNC(=O)Nc2cccc3ccccc23)C(C)C(O)C1(C)O (stereo not drawn) [Example 2, 9-Deoxo-9-dihydro-9a-[N′-(1-naphtyl)carbamoyl-β-aminoethyl]-9a-aza-9a-homoerythromycin A]
0.2617 (≈ 0.287 µM)	0.1547 (≈ 0.17 µM)	0.292 (≈ 0.32 µM)					CCC1OC(=O)C(C)C(OC2CC(C)(OC)C(O)C(C)O2)C(C)C(OC2OC(C)CC(N(C)C)C2O)C(C)(O)CC(C)CN(CCNC(=O)NCc2ccccc2)C(C)C(O)C1(C)O (stereo not drawn) [Example 3, 9-Deoxo-9-dihydro-9a-(N′-benzylcarbamoyl-β-aminoethyl)-9a-aza-9a-homoerythromycin A]
0.0432 (≈ 0.0456 µM)	0.0289 (≈ 0.0305 µM)	0.0713 (≈ 0.0753 µM)					CCC1OC(=O)C(C)C(OC2CC(C)(OC)C(O)C(C)O2)C(C)C(OC2OC(C)CC(N(C)C)C2O)C(C)(O)CC(C)CN(CCNC(=O)Nc2ccc3ccccc3c2)C(C)C(O)C1(C)O (stereo not drawn) [Example 12, 9-Deoxo-9-dihydro-9a-[N′-(2-naphtyl)carbamoyl-β-aminoethyl]-9a-aza-9a-homoerythromycin A]
			0.366 (≈ 0.41 µM)	0.713 (≈ 0.8 µM)	> 0.797		CC[C@H]1OC(=O)[C@H](C)[C@@H](O[C@H]2C[C@@](C)(OC)[C@@H](O)[C@H](C)O2)[C@H](C)[C@@H](O[C@@H]2O[C@H](C)C[C@H](N(C)C)[C@H]2O)[C@](C)(O)C[C@@H](C)CN(CCCNC(=O)NC(C)(C)C)[C@H](C)[C@@H](O)[C@]1(C)O [Example 53]
			0.435 (≈ 0.489 µM)	1.05 (≈ 1.18 µM)	> 0.797		CCC(C)NC(=O)NCCCN1C[C@H](C)C[C@@](C)(O)[C@H](O[C@@H]2O[C@H](C)C[C@H](N(C)C)[C@H]2O)[C@@H](C)[C@H](O[C@H]2C[C@@](C)(OC)[C@@H](O)[C@H](C)O2)[C@@H](C)C(=O)O[C@H](CC)[C@@](C)(O)[C@H](O)[C@H]1C (stereo partly drawn) [Example 55]
			0.251 (≈ 0.277 µM)	0.556 (≈ 0.616 µM)	> 0.797		CC[C@H]1OC(=O)[C@H](C)[C@@H](O[C@H]2C[C@@](C)(OC)[C@@H](O)[C@H](C)O2)[C@H](C)[C@@H](O[C@@H]2O[C@H](C)C[C@H](N(C)C)[C@H]2O)[C@](C)(O)C[C@@H](C)CN(CCCNC(=O)NC2CCCC2)[C@H](C)[C@@H](O)[C@]1(C)O [Example 56]
			0.263 (≈ 0.287 µM)	0.454 (≈ 0.496 µM)	> 0.797		CC[C@H]1OC(=O)[C@H](C)[C@@H](O[C@H]2C[C@@](C)(OC)[C@@H](O)[C@H](C)O2)[C@H](C)[C@@H](O[C@@H]2O[C@H](C)C[C@H](N(C)C)[C@H]2O)[C@](C)(O)C[C@@H](C)CN(CCCNC(=O)NCc2ccco2)[C@H](C)[C@@H](O)[C@]1(C)O [Example 57]
			0.169 (≈ 0.185 µM)	0.377 (≈ 0.411 µM)	> 0.797		CC[C@H]1OC(=O)[C@H](C)[C@@H](O[C@H]2C[C@@](C)(OC)[C@@H](O)[C@H](C)O2)[C@H](C)[C@@H](O[C@@H]2O[C@H](C)C[C@H](N(C)C)[C@H]2O)[C@](C)(O)C[C@@H](C)CN(CCCNC(=O)NC2CCCCC2)[C@H](C)[C@@H](O)[C@]1(C)O [Example 58]
			0.092 (≈ 0.0983 µM)	0.193 (≈ 0.206 µM)		0.362 (≈ 0.386 µM)	CC[C@H]1OC(=O)[C@H](C)[C@@H](O[C@H]2C[C@@](C)(OC)[C@@H](O)[C@H](C)O2)[C@H](C)[C@@H](O[C@@H]2O[C@H](C)C[C@H](N(C)C)[C@H]2O)[C@](C)(O)C[C@@H](C)CN(CCCNC(=O)Nc2ccc(C#N)cc2)[C@H](C)[C@@H](O)[C@]1(C)O [Example 59]
			0.0693 (≈ 0.0738 µM)	0.0933 (≈ 0.0993 µM)		0.212 (≈ 0.226 µM)	CCc1ccc(NC(=O)NCCCN2C[C@H](C)C[C@@](C)(O)[C@H](O[C@@H]3O[C@H](C)C[C@H](N(C)C)[C@H]3O)[C@@H](C)[C@H](O[C@H]3C[C@@](C)(OC)[C@@H](O)[C@H](C)O3)[C@@H](C)C(=O)O[C@H](CC)[C@@](C)(O)[C@H](O)[C@H]2C)cc1 [Example 60]
			0.253	0.436	> 0.797		CC[C@H]1OC(=O)[C@H](C)[C@@H](O[C@H]2C[C@@](C)(OC)[C@@H](O)[C@H](C)O2)[C@H](C)[C@@H](O[C@@H]2O[C@H](C)C[C@H](N(C)C)[C@H]2O)[C@](C)(O)C[C@@H](C)CN(CCCNC(=S)Nc2ccc(OC)cc2)[C@H](C)[C@@H](O)[C@]1(C)O.O=CO [Example 61]
			0.0502 (≈ 0.0523 µM)	0.11 (≈ 0.115 µM)		0.373 (≈ 0.389 µM)	CC[C@H]1OC(=O)[C@H](C)[C@@H](O[C@H]2C[C@@](C)(OC)[C@@H](O)[C@H](C)O2)[C@H](C)[C@@H](O[C@@H]2O[C@H](C)C[C@H](N(C)C)[C@H]2O)[C@](C)(O)C[C@@H](C)CN(CCCNC(=S)Nc2cc(F)ccc2C)[C@H](C)[C@@H](O)[C@]1(C)O [Example 62]
			0.141 (≈ 0.149 µM)	0.542 (≈ 0.571 µM)	> 0.797		CC[C@H]1OC(=O)[C@H](C)[C@@H](O[C@H]2C[C@@](C)(OC)[C@@H](O)[C@H](C)O2)[C@H](C)[C@@H](O[C@@H]2O[C@H](C)C[C@H](N(C)C)[C@H]2O)[C@](C)(O)C[C@@H](C)CN(CCCNC(=O)Nc2ccc(CC#N)cc2)[C@H](C)[C@@H](O)[C@]1(C)O [Example 63]
				0.0572 (≈ 0.055 µM)		0.127 (≈ 0.122 µM)	CC[C@H]1OC(=O)[C@H](C)[C@@H](O[C@H]2C[C@@](C)(OC)[C@@H](O)[C@H](C)O2)[C@H](C)[C@@H](O[C@@H]2O[C@H](C)C[C@H](N(C)C)[C@H]2O)[C@](C)(O)C[C@@H](C)CN(CCCN(CCC(N)=O)C(=S)NCCCc2ccccc2)[C@H](C)[C@@H](O)[C@]1(C)O [Example 167, 9-Deoxo-9-dihydro-9a-{N′-(β-amidoethyl)-N′-[γ-(phenylpropyl)thiocarbamoyl]-γ-aminopropyl}-9a-aza-9a-homoerythromycin A]
				0.128 (≈ 0.151 µM)		0.543 (≈ 0.639 µM)	CC[C@H]1OC(=O)[C@H](C)[C@@H](O)[C@H](C)[C@@H](O[C@@H]2O[C@H](C)C[C@H](N(C)C)[C@H]2O)[C@](C)(O)C[C@@H](C)CN(CCCN(CCC#N)C(=S)NCCc2ccccc2)[C@H](C)[C@@H](O)[C@]1(C)O [Example 170]

Compound	IC50 W2 [1] [µg/mL]	IC50 TM91C235 [2] [µg/mL]	IC50 D6 [3] [µg/mL]	IC50 [1] [µg/mL]	IC50 [2] [µg/mL]	IC50 [3, 4] [µg/mL]	IC50 ([3]; read-out: IC50 D6) [µg/mL]
CC[C@H]1OC(=O)[C@H](C)[C@@H](O[C@H]2C[C@@](C)(OC)[C@@H](O)[C@H](C)O2)[C@H](C)[C@@H](O[C@@H]2O[C@H](C)C[C@H](N(C)C)[C@H]2O)[C@](C)(O)C[C@@H](C)CN(CCNC(=O)NC(C)C)[C@H](C)[C@@H](O)[C@]1(C)O [Example 1, 9-Deoxo-9-dihydro-9a-(N′-isopropylcarbamoyl-β-aminoethyl)-9a-aza-9a-homoerythromycin A]	1.777 (≈ 2.06 µM)	0.6191 (≈ 0.717 µM)					
